# In publication PMC9967275, “Screening the Pathogen Box to Discover and Characterize New Cruzain and TbrCatL Inhibitors” (Pathogens, 2023):
# Entries after “also recorded” stand apart in the source; their conditions may differ. Where two headings read alike, the source gives them in different places.
# Assays:
# [1] = set-up: method as in earlier work; settings: cited from earlier work
# [2] = target: T1, TbrCatL (Trypanosoma brucei rhodesiense, UniProt Q95PM0); assay: TbrCatL enzymatic inhibition assay (cleavage of fluorogenic substrate Z-FR-AMC); assay type: biochemical
# T1 construct: Conor Caffrey (University of California San Diego)
# How it was run: (§1)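 Recombinant enzymes assayed by Z-Phe-Arg-AMC cleavage at 25 °C, fluorescence 340/440 nm over 5–7 min, with 10 min or no enzyme–compound preincubation.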
# [3] = test system: SARS-CoV-2 MPro; set-up: method as in PMID 33655614; settings: read-out: IC50 against MPro; cited from earlier work
# [4] = target: T2, cruzain (Trypanosoma cruzi, UniProt P25779); assay: Aggregation counter-assays: cruzain inhibition at varying Triton X-100 and after pre-incubation with BSA; assay type: biochemical; set-up: Cruzain is the truncated, recombinant-expressed cruzipain 1; Brian Shoichet (University of California San Francisco); settings: for % Cruzain Inhibition (Mean ± SEM) 0.001% Triton + BSA 1 mg/mL / % Cruzain Inhibition (Mean ± SEM) 0.001% Triton X-100 / % Cruzain Inhibition (Mean ± SEM) 0.01% Triton X-100 / % Cruzain Inhibition (Mean ± SEM) 0.1% Triton X-100: compound µM: MMV687246 12.5, MMV687812 3.125, MMV688179 1.563, MMV688362 3.125, MMV688466 6.25, MMV690028 25
# Description: To assess the effects of the Triton X-100 concentration on cruzain inhibition, assays were performed using 0.001%, 0.01%, and 0.1% Triton X-100. To evaluate the impact of pre-incubation with bovine serum albumin (BSA), 50 µL of a solution of the compound in the assay buffer containing 0.001% of Triton X-100 was incubated with 4 mg/mL of BSA (Sigma-Aldrich) for 10′ in a 96-well plate. Next, 50 µL of a solution containing circa 2 nM of cruzain in the same buffer was added to each well and incubated for another 10′. Finally, 100 µL of a solution of 5 µM Z-FR-AMC in the same buffer was added to each well and the fluorescence was immediately read. The final compound concentration varies and was selected to be near the compound IC50.
# To investigate if inhibition was due to colloidal aggregation, a common cause of unspecific enzyme inhibition in in vitro assays, we employed two well-established experiments: the comparison of percentages of inhibition at varying Triton X-100 concentrations and the effect of compound pre-incubation with BSA on the percentage of inhibition. […] Pre-incubating a compound that aggregates with BSA saturates the protein-binding capacity of the aggregate.
# [5] = test system: porphobilinogen deaminase; set-up: method as in earlier work; settings: cited from earlier work
# [6] = test system: DNA minor groove; set-up: method as in PMID 18247550, PMID 22497334; settings: SPR, ITC, CD, and Tm experiments; cited from earlier work
# [7] = target: T2, cruzain; assay: biochemical
# How it was run: as §1
# [8] = test system: T. cruzi; settings: cited from earlier work
# [9] = test system: ferrochelatase; set-up: method as in earlier work; settings: cited from earlier work
# [10] = target: T2, cruzain; assay: Mechanism of inhibition against cruzain (Michaelis-Menten, Lineweaver-Burk); assay type: biochemical; set-up: Cruzain is the truncated, recombinant-expressed cruzipain 1; Brian Shoichet (University of California San Francisco)
# Description: Non-linear regression to Michaelis-Menten models and linear regression for the Lineweaver-Burk plot were performed. Ki was estimated by both methods. The effect of the inhibitor concentration on the Km app was evaluated using the General Linear F-test.
# [11] = IC50 (µM ± SEM %) TbrCatL 0′, no pre-incubation
# [12] = IC50 (µM ± SEM %) TbrCatL 10′ inc, 10′ pre-incubation
# [13] = read-out: Inhibition at 5 µM (Mean ± SEM %) TbrCatL 0′
# [14] = read-out: Inhibition at 5 µM (Mean ± SEM %) TbrCatL 10′ inc
# [15] = read-out: Inhibition at 100 µM (Mean ± SEM %) TbrCatL 0′
# [16] = read-out: Inhibition at 100 µM (Mean ± SEM %) TbrCatL 10′ inc
# [17] = read-out: TbrCatL 0’ Inhibition
# [18] = read-out: TbrCatL 10’ Inhibition
# [19] = IC50 (µM ± SEM %) Cruzain 0′, no pre-incubation
# [20] = IC50 (µM ± SEM %) Cruzain 10′ inc, 10′ pre-incubation
# [21] = read-out: Cruzain 0’ Inhibition, 0’ (pre-incubation time), sheet "Screening results"
# [22] = read-out: Cruzain 10’ Inhibition, 10’ (pre-incubation time), sheet "Screening results"
# [23] = read-out: Inhibition at 5 µM (Mean ± SEM %) Cruzain 0′, 5 µM, no pre-incubation, initial screening
# [24] = read-out: Inhibition at 5 µM (Mean ± SEM %) Cruzain 10′ inc, 5 µM, 10′ pre-incubation, initial screening
# [25] = read-out: Inhibition at 100 µM (Mean ± SEM %) Cruzain 0′, 100 µM, no pre-incubation, solid samples
# [26] = read-out: Inhibition at 100 µM (Mean ± SEM %) Cruzain 10′ inc, 100 µM, 10′ pre-incubation, solid samples
# [27] = read-out: Inhibition of cruzain or TbrCatL (either enzyme) in the initial screening, 5 µM, either cruzain or TbrCatL, with or without pre-incubation
# T2 sequence (P25779 123-337 limits assumed): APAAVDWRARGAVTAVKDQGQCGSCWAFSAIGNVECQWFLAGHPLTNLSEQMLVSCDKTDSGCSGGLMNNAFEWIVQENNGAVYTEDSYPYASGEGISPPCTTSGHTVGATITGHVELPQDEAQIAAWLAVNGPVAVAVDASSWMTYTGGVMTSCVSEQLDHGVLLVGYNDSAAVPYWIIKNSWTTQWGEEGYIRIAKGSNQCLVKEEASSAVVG
# T1 sequence (Q95PM0 entry or part of it): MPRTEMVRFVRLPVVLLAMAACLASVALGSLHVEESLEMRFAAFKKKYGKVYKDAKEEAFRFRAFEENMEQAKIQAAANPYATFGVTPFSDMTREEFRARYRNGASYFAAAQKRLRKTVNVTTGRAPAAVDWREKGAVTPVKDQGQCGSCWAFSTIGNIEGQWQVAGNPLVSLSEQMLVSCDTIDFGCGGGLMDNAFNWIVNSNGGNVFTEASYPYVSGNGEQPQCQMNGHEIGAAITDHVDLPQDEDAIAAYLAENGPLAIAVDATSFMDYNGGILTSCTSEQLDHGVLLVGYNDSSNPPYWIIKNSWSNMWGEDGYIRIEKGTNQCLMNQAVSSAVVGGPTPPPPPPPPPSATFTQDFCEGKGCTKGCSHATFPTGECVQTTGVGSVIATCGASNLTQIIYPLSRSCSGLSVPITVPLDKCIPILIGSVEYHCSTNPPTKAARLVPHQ
Structure (SMILES),"IC50 [2, 11] [µM]","IC50 [2, 12] [µM]","inhibition at 5 µM [2, 13] [%]","inhibition at 5 µM [2, 14] [%]","inhibition at 100 µM [2, 15] [%]","inhibition at 100 µM [2, 16] [%]","inhibition at 5 µM [2, 17] [%]","inhibition at 5 µM [2, 18] [%]",% Cruzain Inhibition (Mean ± SEM) 0.001% Triton + BSA 1 mg/mL [4] [%],% Cruzain Inhibition (Mean ± SEM) 0.001% Triton X-100 [4] [%],% Cruzain Inhibition (Mean ± SEM) 0.01% Triton X-100 [4] [%],% Cruzain Inhibition (Mean ± SEM) 0.1% Triton X-100 [4] [%],Binding to the DNA minor groove [6],"IC50 [7, 19] [µM]","IC50 [7, 20] [µM]","inhibition at 5 µM [7, 21] [%]","inhibition at 5 µM [7, 22] [%]","inhibition at 5 µM [7, 23] [%]","inhibition at 5 µM [7, 24] [%]","inhibition at 100 µM [7, 25] [%]",further results
N=C(N)Nc1ccc(-c2ccc(-c3ccc(NC(=N)N)cc3Cl)o2)c(Cl)c1 [MMV688179],4 ± 1,5 ± 2,50 ± 3,58 ± 25,100,100,50,58,89 ± 8,85 ± 6,80 ± 1,82 ± 13,known to bind to the DNA minor groove,0.46 ± 0.03,0.53 ± 0.03,102,110,98 ± 2,100,100,"CC50 [1]: 11600 nM; IC50 against TbrCatL relative to cruzain ([2]; TbrCatL vs cruzain): 10 fold; IC50 [3]: 1600 nM; Colloidal aggregation assessment ([4]; near the IC50): do not suggest aggregation properties near the IC50; Inhibition of porphobilinogen deaminase [5]: lack of MMV688179 inhibition; inhibition at 100 µM [7, 26]: 100%; inhibition at 5 µM [7, 27]: ≥ 60%; EC50 ([8]; read-out: EC50 against T. cruzi): 27000 nM; Inhibition of ferrochelatase [9]: lack of MMV688179 inhibition; Mechanism of inhibition of cruzain [10]: competitive inhibitor; also recorded: competition with the substrate; Ki ([10]; competitive model, read-out: Ki against cruzain from non-linear regression of the Michaelis-Menten competitive model): 165 ± 63 nM; Ki ([10]; linear regression of Kmapp, read-out: Ki against cruzain from the linear regression of Kmapp): 206 nM"
COc1cc(C2=NCCN2)cc2cc(-c3ccc(C4=NCCN4)cc3)oc12 [MMV688362],2.9 ± 0.8,2.3 ± 0.1,9 ± 1,43 ± 4,100,100,9,43,29 ± 3,59 ± 2,41 ± 2,25 ± 2,known to bind to the DNA minor groove,4.2 ± 0.6,2.35 ± 0.02,19,27,19 ± 1,27 ± 3,100,"Effect of pre-incubation of the compound with BSA on cruzain inhibition ([4]; near the IC50): some reduction in the inhibition; IC50 ([7]; IC50 against cruzain and TbrCatL (summary), cruzain and TbrCatL, with or without pre-incubation): 2 to 4 µM; inhibition at 100 µM [7, 26]: 100%; inhibition at 5 µM [7, 27]: ≥ 40%; EC50 ([8]; ref Pathogen Box data, read-out: EC50 against T. cruzi reported on PB): 13000 nM"
